According to patent EP4786487A1, “PEPTIDE” (Peptidream Inc, priority 2023, dated 2025):
pIC50: −log10 of the molar value. Like-named read-outs stand apart in the source and are kept apart here. Starred links: 1 amine or outer side, 2 acyl side, 3 side chain; linkers in the order of their positions; H or OH if unused. Positions of bridges follow the written chain, without caps; N, C: chain ends. Non-standard residues stand in square brackets, D forms with d. Residues, ends and D or L forms follow the SMILES beside them. No end group written: not given here. *: point of attachment. Trp(6-OH,1-(4-HO2C-Ph)) = N[C@@H](Cc1cn(-c2ccc(C(=O)O)cc2)c2cc(O)ccc12)C(=O)O; Phe(3-OCH2COOH) = N[C@@H](Cc1cccc(OCC(=O)O)c1)C(=O)O; N(CH2CH2CO)Gly = O=C(CN(CCC(=O)[*:3])[*:1])[*:2]; NMePhe(4-CH2NH2) = CN[C@@H](Cc1ccc(CN)cc1)C(=O)O; Piperidine(4-CH2CH2CONH2) = NC(=O)CCC1CCN(*)CC1; Phe(4-COOH) = N[C@@H](Cc1ccc(C(=O)O)cc1)C(=O)O; Bip = N[C@@H](Cc1ccc(-c2ccccc2)cc1)C(=O)O; Gly(N(CH2)3COOH) = O=C(O)CCCNCC(=O)O; NMeY = CN[C@@H](Cc1ccc(O)cc1)C(=O)O; X1 = CCCCCCC[C@H](N[*:1])C(=O)[*:2]; NMeAad = CN[C@@H](CCCC(=O)O)C(=O)O; NMeF = CN[C@@H](Cc1ccccc1)C(=O)O; NMeDab = CN[C@@H](CCN)C(=O)O; NMeDap = CN[C@@H](CN)C(=O)O; NMeA = CN[C@@H](C)C(=O)O; dNMeA = CN[C@H](C)C(=O)O; Sar = CNCC(=O)O

Legend:
Assay type in all cases: cell-based
[1] = tested on: Myostatin; experiment: Reporter gene assay for myostatin signaling in HepG2 cell line, Evaluation Procedure (1), myostatin inhibition; conditions: HepG2 reporter assays, statement in words
Method: (§1) In this Example, the in vitro myostatin inhibitory effects of the peptides synthesized in Examples 1 and 2 were evaluated using a reporter gene assay for myostatin signaling in HepG2 cell line.
(§2) HepG2 cell line (HB-8065, ATCC) cultured in EMEM (055-08975, WAKO Industries) containing 10% FBS (10270106, Gibco) and 50 µg/mL gentamicin (11980-14, Nacalai Tesque) was seeded in 96-well plates (167008, Thermo) at 2.0 × 10^4 cells/well and incubated in a CO2 incubator (37°C, 5% CO2) for 24 hours. The pGL3(CAGA)12-luc plasmid, namely a pGL3 vector (E1751, Promega) having a luciferase gene inserted downstream of a promoter sequence with 12 CAGA repeats attached, was added to the wells along with a transfection reagent (X-treamGENE9 DNA Transfection Reagent, 6365809001, Roche) at a concentration of 0.04 µg/well. The cell line was cultured in a CO2 incubator (37°C, 5% CO2) for 24 hours for transfection. The medium was discarded and replaced with EMEM containing 50 µL/well of 0.1% bovine serum albumin (A7030, Sigma) and 50 µg/mL gentamicin, and incubated in a CO2 incubator (37°C, 5% CO2) for 2 hours.
(§3) Myostatin (788-G8/C, R&D systems) or GDF-11 (1958-GD-G8/CF, R&D systems) was added so that the final concentrations were those listed in Table 5.
(§4) A 4-fold dilution series of various peptides synthesized in Examples 1 and 2 was added to achieve 0.006-100 nmol/L (myostatin inhibition) and 0.12-2000 nmol/L (GDF-11 inhibition). At this time, blank wells, in which neither myostatin, GDF-11, nor each peptide was added, were also prepared and incubated in a CO2 incubator (37°C, 5% CO2) for 20 to 24 hours.
(§5) The medium containing the cells was removed, and a mixture containing PBS (14190144, Thermo) and a chromogenic substrate One-Glo Luciferase Assay System (E6120, Promega) at a ratio of 1:1 was added to each well at 100 µL/well. This was stirred with a plate shaker for 5 min and transferred to a 384-well plate (3570, Corning) at a volume of 20 µL/well.
(§6) The plate was centrifuged at 1,000 × g for 1 min and the luminescence signal (700 nm luminescence) was measured using a plate reader (Envision 2104, PerkinElmer). Based on the measured values, IC50 values of the peptides were calculated using software (Prism 9, GraphPad). […]
(§7) In this Example, the in vitro myostatin inhibitory effects of the peptides synthesized in Examples 10 and 11 were evaluated according to the Evaluation Procedure (1) in Example 3.

[2] = target: T1, Myostatin (Homo sapiens, UniProt O14793); experiment: as above
T1 construct: active myostatin (also called mature myostatin) is a homodimer consisting of two C-terminal growth factor domains; purchased R&D systems 788-G8/CF
T1 sequence (O14793 267-375): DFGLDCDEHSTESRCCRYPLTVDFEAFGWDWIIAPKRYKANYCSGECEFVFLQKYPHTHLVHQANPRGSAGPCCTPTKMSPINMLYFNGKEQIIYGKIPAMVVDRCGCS
Method: as §1, §2, §3, §4, §5, §6, §7

[3] = target: T2, GDF-11 (Homo sapiens, UniProt O95390); experiment: Reporter gene assay for myostatin signaling in HepG2 cell line, Evaluation Procedure (1), GDF-11 inhibition
T2 construct: purchased R&D systems 1958-GD-G8/CF
T2 sequence (O95390 299-407): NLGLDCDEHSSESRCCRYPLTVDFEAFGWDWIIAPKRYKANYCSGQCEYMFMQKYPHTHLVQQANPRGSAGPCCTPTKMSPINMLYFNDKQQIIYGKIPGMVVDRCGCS
Method: as §1, §2, §3, §4, §5, §6, §7

[4] = HepG2, luciferase reporter, Evaluation Procedure (1), Method D
[5] = HepG2, luciferase reporter, Evaluation Procedure (1), Method D, read-out: IC50 (Luciferase) GDP-11 HepG2
[6] = Method D: Myostatin 1.5 ng/mL, read-out: IC50 (Luciferase) Myostatin HepG2
[7] = Method D: GDF-11 1.5 ng/mL, read-out: IC50 (Luciferase) GDF-11 HepG2

Row | Molecule | pIC50 [2, 4] | pIC50 [3, 5] | pIC50 [2, 6] | pIC50 [3, 7] | further results
1 | A-R-W-Y-MeF-I-MeG-Y-Y-R-MeF-L-MeA-MeF-C (ARWY[NMeF]I[Sar]YYR[NMeF]L[NMeA][NMeF]C) [SEQ ID NO: 1] | – | – | – | – | inhibitory activity against myostatin [1]: confirmed to have myostatin inhibitory activity
2 | CCCCCCC[C@@H]1NC(=O)[C@H](Cc2ccccc2)N(C)C(=O)[C@H](CCCNC(=N)N)NC(=O)[C@H](Cc2ccc(C(=O)O)cc2)NC(=O)[C@H](Cc2cccc(OCC(=O)O)c2)NC(=O)[C@H]2CCCN2C(=O)[C@H]([C@@H](C)CC)NC(=O)[C@H](Cc2ccccc2)N(C)C(=O)[C@H](Cc2ccc(O)cc2)NC(=O)[C@H](Cc2cn(-c3ccc(C(=O)O)cc3)c3cc(O)ccc23)NC(=O)[C@H](C)NC(=O)CN(CCCC(=O)O)C(=O)[C@H](C)N(C)C(=O)[C@@H](C)NC(=O)[C@H](Cc2ccccc2)N(C)C(=O)[C@H](C)N(C)C1=O [Myostatin_99_v482] (cyclo(A[Trp(6-OH,1-(4-HO2C-Ph))]Y[NMeF]I[dP][Phe(3-OCH2COOH)][Phe(4-COOH)]R[NMeF][X1][NMeA][NMeF][dA][NMeA][Gly(N(CH2)3COOH)])) | 9.96 | 7.04 | – | – | –
3 | CCCCCCC[C@@H]1NC(=O)[C@H](Cc2ccccc2)N(C)C(=O)[C@H](CCCNC(=N)N)NC(=O)[C@H](Cc2ccc(C(=O)O)cc2)NC(=O)[C@H](Cc2cccc(OCC(=O)O)c2)NC(=O)[C@H](C)N(C)C(=O)[C@H]([C@@H](C)CC)NC(=O)[C@H](Cc2ccccc2)N(C)C(=O)[C@H](Cc2ccc(O)cc2)NC(=O)[C@H](Cc2c[nH]c3ccccc23)NC(=O)[C@H](C)NC(=O)[C@@H]2CC(=O)NCC[C@@H](C(=O)N(C)[C@@H](Cc3ccccc3)C(=O)N[C@@H](C(=O)O)CSCC(=O)N2)N(C)C1=O [Myostatin_99_v367] ({CH2CO}-DAWY[NMeF]I[NMeA][Phe(3-OCH2COOH)][Phe(4-COOH)]R[NMeF][X1][NMeDab][NMeF][dC]-OH; lactam 1-13; thioether N-15) | – | – | 9.82 | 6.93 | –
4 | CCCCCCC[C@@H]1NC(=O)[C@H](Cc2ccccc2)N(C)C(=O)[C@H](CCCNC(=N)N)NC(=O)[C@H](Cc2ccc(C(=O)O)cc2)NC(=O)[C@H](Cc2cccc(OCC(=O)O)c2)NC(=O)[C@H]2CCCN2C(=O)[C@H]([C@@H](C)CC)NC(=O)[C@H](Cc2ccccc2)N(C)C(=O)[C@H](Cc2ccc(O)cc2)NC(=O)[C@H](Cc2cn(-c3ccc(C(=O)O)cc3)c3cc(O)ccc23)NC(=O)[C@H](C)NC(=O)[C@H](C)NC(=O)[C@H](C)N(C)C(=O)[C@@H](C)NC(=O)[C@H](Cc2ccccc2)N(C)C(=O)[C@H](C)N(C)C1=O [Myostatin_99_v483] (cyclo(AA[Trp(6-OH,1-(4-HO2C-Ph))]Y[NMeF]I[dP][Phe(3-OCH2COOH)][Phe(4-COOH)]R[NMeF][X1][NMeA][NMeF][dA][NMeA])) | 9.85 | 7.22 | – | – | –
5 | CCCCCCC[C@@H]1NC(=O)[C@@H]2Cc3ccc(cc3)CNC(=O)CC[C@H](NC(=O)CSC[C@H](C(=O)O)NC(=O)[C@H](Cc3ccccc3)N(C)C(=O)[C@H](C)N(C)C1=O)C(=O)N[C@@H](C)C(=O)N[C@@H](Cc1cn(-c3ccc(C(=O)O)cc3)c3cc(O)ccc13)C(=O)N[C@@H](Cc1ccc(O)cc1)C(=O)N(C)[C@@H](Cc1ccccc1)C(=O)N[C@@H]([C@@H](C)CC)C(=O)N1CCC[C@@H]1C(=O)N[C@@H](Cc1cccc(OCC(=O)O)c1)C(=O)N[C@@H](Cc1ccc(C(=O)O)cc1)C(=O)N[C@@H](CCCNC(=N)N)C(=O)N2C [Myostatin_99_v424] ({CH2CO}-EA[Trp(6-OH,1-(4-HO2C-Ph))]Y[NMeF]I[dP][Phe(3-OCH2COOH)][Phe(4-COOH)]R[NMePhe(4-CH2NH2)][X1][NMeA][NMeF][dC]-OH; lactam 1-11; thioether N-15) | – | – | 10.40 | 7.82 | –
6 | CC[C@H](C)[C@@H]1NC(=O)[C@H](Cc2ccc(O)cc2)N(C)C(=O)[C@H](Cc2ccc(O)cc2)NC(=O)[C@H](Cc2ccc(-c3ccccc3)cc2)NC(=O)[C@H](C)NC(=O)CN(CCCC(=O)O)C(=O)CSC[C@H](C(=O)O)NC(=O)[C@H](Cc2ccccc2)N(C)C(=O)[C@H](C)N(C)C(=O)[C@H](CC(C)C)NC(=O)[C@H](Cc2ccccc2)N(C)C(=O)[C@H](CCCNC(=N)N)NC(=O)[C@H](Cc2ccc(C(=O)O)cc2)NC(=O)[C@H](Cc2cccc(OCC(=O)O)c2)NC(=O)[C@@H](C)N(C)C1=O [Myostatin_99_v118] ({CH2CO}-[Gly(N(CH2)3COOH)]A[Bip]Y[NMeY]I[dNMeA][Phe(3-OCH2COOH)][Phe(4-COOH)]R[NMeF]L[NMeA][NMeF][dC]-OH; thioether N-15) | – | – | – | – | pIC50 ([2]; Method A: Myostatin 10 ng/mL, read-out: IC50 (Luciferase) Myostatin HepG2): 7.64; pIC50 ([3]; Method A: GDF-11 10 ng/mL, read-out: IC50 (Luciferase) GDF-11 HepG2): 5.39
7 | CCCCCCC[C@@H]1NC(=O)[C@@H]2Cc3ccc(cc3)CNC(=O)CCC[C@@H](C(=O)N[C@@H](C)C(=O)N[C@@H](Cc3cn(-c4ccc(C(=O)O)cc4)c4cc(O)ccc34)C(=O)N[C@@H](Cc3ccc(O)cc3)C(=O)N(C)[C@@H](Cc3ccccc3)C(=O)N[C@@H]([C@@H](C)CC)C(=O)N3CCC[C@@H]3C(=O)N[C@@H](Cc3cccc(OCC(=O)O)c3)C(=O)N[C@@H](Cc3ccc(C(=O)O)cc3)C(=O)N[C@@H](CCCNC(=N)N)C(=O)N2C)N(C)C(=O)[C@H](C)N(C)C(=O)[C@@H](C)NC(=O)[C@H](Cc2ccccc2)N(C)C(=O)[C@H](C)N(C)C1=O [Myostatin_99_v490] (cyclo(A[Trp(6-OH,1-(4-HO2C-Ph))]Y[NMeF]I[dP][Phe(3-OCH2COOH)][Phe(4-COOH)]R[NMePhe(4-CH2NH2)][X1][NMeA][NMeF][dA][NMeA][NMeAad]); lactam 10-16) | 9.15 | 6.95 | – | – | –
8 | CCCCCCC[C@@H]1NC(=O)[C@@H]2Cc3ccc(cc3)CNC(=O)CC[C@H](NC(=O)CSC[C@H](C(=O)O)NC(=O)[C@H](Cc3ccccc3)N(C)C(=O)[C@H](C)N(C)C1=O)C(=O)N[C@@H](C)C(=O)N[C@@H](Cc1c[nH]c3ccccc13)C(=O)N[C@@H](Cc1ccc(O)cc1)C(=O)N(C)[C@@H](Cc1ccccc1)C(=O)N[C@@H]([C@@H](C)CC)C(=O)N(C)[C@@H](C)C(=O)N[C@@H](Cc1cccc(OCC(=O)O)c1)C(=O)N[C@@H](Cc1ccc(C(=O)O)cc1)C(=O)N[C@@H](CCCNC(=N)N)C(=O)N2C [Myostatin_99_v358] ({CH2CO}-EAWY[NMeF]I[NMeA][Phe(3-OCH2COOH)][Phe(4-COOH)]R[NMePhe(4-CH2NH2)][X1][NMeA][NMeF][dC]-OH; lactam 1-11; thioether N-15) | – | – | 9.77 | 7.28 | –
9 | CCCCCCC[C@@H]1NC(=O)[C@H](Cc2ccccc2)N(C)C(=O)[C@H](CCCNC(=N)N)NC(=O)[C@H](Cc2ccc(C(=O)O)cc2)NC(=O)[C@H](Cc2cccc(OCC(=O)O)c2)NC(=O)[C@H]2CCCN2C(=O)[C@H]([C@@H](C)CC)NC(=O)[C@H](Cc2ccccc2)N(C)C(=O)[C@H](Cc2ccc(O)cc2)NC(=O)[C@H](Cc2cn(-c3ccc(C(=O)O)cc3)c3cc(O)ccc23)NC(=O)[C@H](C)NC(=O)CN2CCC(=O)NC[C@@H](C(=O)N(C)[C@@H](Cc3ccccc3)C(=O)N[C@@H](C(=O)N3CCC(CCC(N)=O)CC3)CSCC2=O)N(C)C1=O [Myostatin_99_v478] ({CH2CO}-[N(CH2CH2CO)Gly]A[Trp(6-OH,1-(4-HO2C-Ph))]Y[NMeF]I[dP][Phe(3-OCH2COOH)][Phe(4-COOH)]R[NMeF][X1][NMeDap][NMeF][dC]-{Piperidine(4-CH2CH2CONH2)}; lactam 1-13; thioether N-15) | 10.40 | 7.59 | – | – | –
